What was measured:
[1] = tested on: 275-3-2 murine ras-transformed fibroblast cells; assay: Oral administration of osteopontin to 129B6F1 tumor-bearing mice; assay type: in vivo; conditions: for size of the tumor: FIG. 1b
Protocol: A bovine OPN preparation (Lacprodan®, Arla Foods Ingredients, Viby, Denmark) was dissolved in deionized water, filtered, and administered at final concentrations of 0.03, 0.12, or 0.3 mg/ml to 129B6F1 tumor-bearing mice starting either on the day of tumor cell inoculation (Day 0) or five days later (Day 5). The mice were initially inoculated with 5×10^4 mycoplasma-free 275-3-2 murine ras-transformed fibroblast cells (see Wu 2000). Tumor size was measured with calipers and monitored until the tumors reached 20% of the body weight of the animals, at which time the mice were sacrificed and tissue/plasma samples collected. Statistical significance was calculated using one-way ANOVA with Bonferroni post-test.

[2] = Competition ELISA for bovine OPN in plasma of mice fed with OPN; assay type: in vivo; conditions: mice fed 50 mg of OPN over 10-30 minutes
Protocol: In a previous experiment the inventors have detected osteopontin peptides in the plasma of mice fed with OPN using a competition ELISA for bovine OPN: the assay was designed to detect any peptides that can block interaction of intact bovine OPN with the polyclonal antibody used. Plasma from mice fed 50 mg of OPN over 10-30 minutes was analyzed using this ELISA. Peak antibody reactivity was detected at 1-4 hours after feeding, with the highest mean levels being close to 5000 ng/ml.

Substance: OPN: bovine OPN preparation (Lacprodan®, Arla Foods Ingredients, Viby, Denmark)
- size of the tumor ([1]; oral OPN 0.12 mg/ml started five days after tumor cell injection, at 15 days): statistically significant decrease
- size of the tumor ([1]; oral OPN 0.3 mg/ml started five days after tumor cell injection, at 17 days): statistically significant decrease
- effect on the size of the tumors ([1]; oral OPN in drinking water started at the time of tumor injection (Day 0), up to 17 days, FIG. 1A): no significant effect
- most effective dose of OPN preparation ([1]; oral dosing experiments, 0.03, 0.12, 0.3 mg/ml, highest dose used): 0.3 mg/mL
- effect of treatment on mouse weight ([1]; oral, about 1.5 mg protein administered): nor is there any effect
- highest mean plasma levels (immunoreactive OPN peptides) [2]: ~5000 ng/mL
- time of peak antibody reactivity in plasma after feeding [2]: 1 to 4 h

From patent US20150190460A1, “OSTEOPONTIN PEPTIDE FRAGMENTS FOR USE IN SUPPRESSION OR PREVENTION OF TUMOR GROWTH” (FORSYTH DENTAL INFIRMARY FOR CHILDREN (D/B/A THE FORSYTH …, priority 2012, published 2015)
